Data published in patent US10173990B2, “URAT1 inhibitor” (Nippon Chemiphar Co., Ltd., priority 2014, dated 2019).

Molecular target: URAT1 (Homo sapiens (Human), UniProt Q96S37)
Assay: Uptake of [14C] uric acid using HEK-URAT1
Assay type: cell-based
Description: More specifically, the test is performed by culturing URAT1 stably expressed HEK293 cells (HEK-URAT1) or HEK293 cells transfected with empty vector (HEK-mock) in a DMEM culture medium in an incubator. Subsequently, 1×10^5 cells are respectively seeded in 24-well culture plate coated with poly D-lysine and the uptake test is started after the culturing.
The cells are washed with a solution for a test warmed to 37° C. and equilibrated. After a buffer solution is removed from the cells, 0.5 mL of an uptake solution containing 5 μM [^14C] uric acid with or without a test compound is respectively added and the cells are incubated. The cell uptake is stopped by adding a Hanks buffer solution and the cells are washed. The cells are lysed with 0.1 N sodium hydroxide and the radioactivity is measured using LSC6100 (Aloka Co., Ltd. Tokyo). Each uptake into HEK-URAT1 is acquired by subtracting uptake into HEK-mock cells from the value of HEK-URAT1, converting the result to per mg protein of cells, and setting the values from the uptake without the test compound as 100%.
URAT1 stably expressed HEK293 cells (HEK-URAT1) or HEK293 cells transfected with empty vector (HEK-mock) were cultured in DMEM culture medium supplemented with 10% fetal bovine serum in an incubator under conditions of 5% carbon dioxide at 37° C. Subsequently, 1×10^5 cells were respectively seeded in 24-well culture plate coated with poly D-lysine and the uptake test was started after the culturing for 3 days.
The uptake experiment of uric acid was performed at 37° C. […] After a buffer solution was removed from the cells, 0.5 mL of an uptake solution containing 5 μM [^14C] uric acid with or without a test compound was respectively added and the cells were incubated for 2 minutes. The cell uptake was stopped by adding an ice-cold Hanks buffer solution without chloride ions and the cells were washed 3 times. The cells were lysed with 0.1 N sodium hydroxide and the radioactivity was measured using LSC6100 (Aloka Co., Ltd. Tokyo). Each uptake into HEK-URAT1 was acquired by subtracting uptake into HEK-mock cells from the value of HEK-URAT1, converting the result to per mg protein of cells, and setting the value from uptake without the test compound as 100%. The uptake in each condition was performed in triplicate and each value was represented by average±standard deviation.
The URAT1 inhibitory action was measured according to the same method as in Example 118.

Sequence of URAT1 (Q96S37 whole entry): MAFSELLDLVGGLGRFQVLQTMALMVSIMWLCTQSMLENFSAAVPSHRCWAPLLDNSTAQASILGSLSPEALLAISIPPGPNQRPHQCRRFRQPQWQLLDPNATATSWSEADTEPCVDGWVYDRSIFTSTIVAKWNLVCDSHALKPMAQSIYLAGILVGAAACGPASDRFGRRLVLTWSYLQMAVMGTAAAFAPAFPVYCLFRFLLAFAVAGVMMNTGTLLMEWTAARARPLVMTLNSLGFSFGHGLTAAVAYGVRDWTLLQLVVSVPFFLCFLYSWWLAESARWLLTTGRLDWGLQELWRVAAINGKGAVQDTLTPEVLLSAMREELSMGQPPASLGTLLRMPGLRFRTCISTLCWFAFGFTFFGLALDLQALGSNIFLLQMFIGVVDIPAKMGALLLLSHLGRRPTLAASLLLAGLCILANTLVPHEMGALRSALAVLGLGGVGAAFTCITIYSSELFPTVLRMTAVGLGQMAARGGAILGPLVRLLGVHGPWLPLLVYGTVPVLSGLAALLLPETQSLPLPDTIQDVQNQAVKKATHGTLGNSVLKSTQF

## N#Cc1ccc(-c2c(SC3(C(=O)O)CCCCC3)ccc3cnsc23)cc1 [Example 117, 1-[[7-(4-Cyanophenyl)benzo[d]isothazol-6-yl]thio]cyclohexan-1-carboxylic acid]
2 min, [14C] uric acid uptake into URAT1 stably expressed HEK293 cells, 10 μM test compound, 5 μM uric acid, 2 minutes, 37° C., uptake without test compound = 100%, read-out: % control (10 μM)
  remaining activity at 10 µM: 2.7%
Inhibition of [14C] uric acid uptake into URAT1 stably expressed HEK293 cells
  IC50: 296 nM
